Source: PubChem BioAssay AID2060496 (Molecular Pharmacology Branch, DTP, NCI, 2025)
pIC50: −log10 of the molar value.

Tested on: 276233-004-R-J1-PDC complex spheroid viability
Assay: Anticancer human tumor 276233-004-R-J1-PDC patient-derived colon adenocarcinoma cell line growth inhibition [GQUAD]
Conditions: for pIC50: curve of first compound; for viability, T/C: stronger effect = lower value
How it was run: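 Viability of tumor cells grown as complex spheroids with endothelial and stromal cells, exposed to drug combinations. Top concentration at or near clinical Cmax (else 10 microM), diluted in half-log increments.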

[1] = second compound 0.0316 µM, first compound 0.0316 µM
[2] = second compound 0.0316 µM, first compound 0.1 µM
[3] = second compound 0.0316 µM, first compound 0.316 µM
[4] = second compound 0.0316 µM, first compound 1 µM
[5] = second compound 0.0316 µM, first compound 3.16 µM
[6] = second compound 0.0316 µM, first compound 10 µM
[7] = second compound 0.1 µM, first compound 0.0316 µM
[8] = second compound 0.1 µM, first compound 0.1 µM
[9] = second compound 0.1 µM, first compound 0.316 µM
[10] = second compound 0.1 µM, first compound 1 µM
[11] = second compound 0.1 µM, first compound 3.16 µM
[12] = second compound 0.1 µM, first compound 10 µM
[13] = second compound 0.316 µM, first compound 0.0316 µM
[14] = second compound 0.316 µM, first compound 0.1 µM
[15] = second compound 0.316 µM, first compound 0.316 µM
[16] = second compound 0.316 µM, first compound 1 µM
[17] = second compound 0.316 µM, first compound 3.16 µM
[18] = second compound 0.316 µM, first compound 10 µM
[19] = second compound 1 µM, first compound 0.0316 µM
[20] = second compound 1 µM, first compound 0.1 µM
[21] = second compound 1 µM, first compound 0.316 µM
[22] = second compound 1 µM, first compound 1 µM
[23] = second compound 1 µM, first compound 3.16 µM
[24] = second compound 1 µM, first compound 10 µM
[25] = second compound 3.16 µM, first compound 0.0316 µM
[26] = second compound 3.16 µM, first compound 0.1 µM
[27] = second compound 3.16 µM, first compound 0.316 µM
[28] = second compound 3.16 µM, first compound 1 µM
[29] = second compound 3.16 µM, first compound 3.16 µM
[30] = second compound 3.16 µM, first compound 10 µM
[31] = second compound 10 µM, first compound 0.0316 µM
[32] = second compound 10 µM, first compound 0.1 µM
[33] = second compound 10 µM, first compound 0.316 µM
[34] = second compound 10 µM, first compound 1 µM
[35] = second compound 10 µM, first compound 3.16 µM
[36] = second compound 10 µM, first compound 10 µM
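Also: spheroids exposed to drugs for seven days.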
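For viability, T/C in this document: 100% = DMSO vehicle control viability.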

CC1COCCN1c1cc(-c2ccnn2C)c2ccnc(-c3ccn[nH]3)c2n1 (stereo not drawn) + Cc1[nH]c2ccc(F)cc2c1-c1nc2c3cccnc3c3ncccc3c2[nH]1
pIC50 (second compound 0.0316 µM): < 5.00 | pIC50 (second compound 0.1 µM): < 5.00 | pIC50 (second compound 0.316 µM): < 5.00 | pIC50 (second compound 1 µM): 5.14 | pIC50 (second compound 3.16 µM): > 7.50 | pIC50 (second compound 10 µM): > 7.50 | viability, T/C [1]: 84.6% | viability, T/C [2]: 69.4% | viability, T/C [3]: 87% | viability, T/C [4]: 70.5% | viability, T/C [5]: 57.9% | viability, T/C [6]: 56.3% | viability, T/C [7]: 76.1% | viability, T/C [8]: 68% | viability, T/C [9]: 68.9% | viability, T/C [10]: 60% | viability, T/C [11]: 68.1% | viability, T/C [12]: 55.3% | viability, T/C [13]: 90.5% | viability, T/C [14]: 87.7% | viability, T/C [15]: 71.2% | viability, T/C [16]: 60.3% | viability, T/C [17]: 57% | viability, T/C [18]: 59.7% | viability, T/C [19]: 89.3% | viability, T/C [20]: 86.6% | viability, T/C [21]: 65.4% | viability, T/C [22]: 60.8% | viability, T/C [23]: 57.6% | viability, T/C [24]: 46.2% | viability, T/C [25]: 48.1% | viability, T/C [26]: 48.5% | viability, T/C [27]: 53.9% | viability, T/C [28]: 45.1% | viability, T/C [29]: 44.1% | viability, T/C [30]: 32.5% | viability, T/C [31]: 42% | viability, T/C [32]: 49.6% | viability, T/C [33]: 40.8% | viability, T/C [34]: 40.2% | viability, T/C [35]: 37.8% | viability, T/C [36]: 32.4%

O=C(c1cc(Cc2n[nH]c(=O)c3ccccc23)ccc1F)N1CCN(C(=O)C2CC2)CC1 + Cc1cnc(CNC(=O)c2c(=O)c3ccc(N4CCCN(C)CC4)nc3n3c2sc2ccccc23)cn1
pIC50 (second compound 0.0316 µM): < 5.00 | pIC50 (second compound 0.1 µM): < 5.00 | pIC50 (second compound 0.316 µM): < 5.00 | pIC50 (second compound 1 µM): < 5.00 | pIC50 (second compound 3.16 µM): < 5.00 | pIC50 (second compound 10 µM): < 5.00 | viability, T/C [1]: 80.1% | viability, T/C [2]: 85% | viability, T/C [3]: 89.3% | viability, T/C [4]: 79.3% | viability, T/C [5]: 90.8% | viability, T/C [6]: 91.6% | viability, T/C [7]: 81.1% | viability, T/C [8]: 92.8% | viability, T/C [9]: 82.2% | viability, T/C [10]: 83.8% | viability, T/C [11]: 85.5% | viability, T/C [12]: 83% | viability, T/C [13]: 96% | viability, T/C [14]: 91.4% | viability, T/C [15]: 83.4% | viability, T/C [16]: 81.8% | viability, T/C [17]: 96.7% | viability, T/C [18]: 73.5% | viability, T/C [19]: 69.9% | viability, T/C [20]: 77.1% | viability, T/C [21]: 91.2% | viability, T/C [22]: 75.5% | viability, T/C [23]: 83.8% | viability, T/C [24]: 67.3% | viability, T/C [25]: 76.9% | viability, T/C [26]: 70% | viability, T/C [27]: 61.1% | viability, T/C [28]: 68.4% | viability, T/C [29]: 77.2% | viability, T/C [30]: 72.7% | viability, T/C [31]: 74.5% | viability, T/C [32]: 68.1% | viability, T/C [33]: 80.2% | viability, T/C [34]: 62.5% | viability, T/C [35]: 77.8% | viability, T/C [36]: 53.2%

CC1COCCN1c1cc(C2(O)CC3CCC(C2)O3)c2cnn(-c3ccn[nH]3)c2n1 (stereo not drawn) + Cc1[nH]c2ccc(F)cc2c1-c1nc2c3cccnc3c3ncccc3c2[nH]1
pIC50 (second compound 0.0316 µM): < 5.00 | pIC50 (second compound 0.1 µM): 5.51 | pIC50 (second compound 0.316 µM): 5.58 | pIC50 (second compound 1 µM): 6.18 | pIC50 (second compound 3.16 µM): 7.15 | pIC50 (second compound 10 µM): > 7.50 | viability, T/C [1]: 91% | viability, T/C [2]: 68% | viability, T/C [3]: 79% | viability, T/C [4]: 72.5% | viability, T/C [5]: 55.6% | viability, T/C [6]: 51% | viability, T/C [7]: 74.6% | viability, T/C [8]: 87% | viability, T/C [9]: 74.8% | viability, T/C [10]: 60.4% | viability, T/C [11]: 52.8% | viability, T/C [12]: 44.5% | viability, T/C [13]: 87.2% | viability, T/C [14]: 76.1% | viability, T/C [15]: 57.4% | viability, T/C [16]: 62.7% | viability, T/C [17]: 54% | viability, T/C [18]: 36% | viability, T/C [19]: 60.4% | viability, T/C [20]: 70% | viability, T/C [21]: 65.6% | viability, T/C [22]: 41.7% | viability, T/C [23]: 39.6% | viability, T/C [24]: 27.9% | viability, T/C [25]: 51.4% | viability, T/C [26]: 50.9% | viability, T/C [27]: 43.2% | viability, T/C [28]: 36% | viability, T/C [29]: 33.2% | viability, T/C [30]: 26.2% | viability, T/C [31]: 46.3% | viability, T/C [32]: 44.3% | viability, T/C [33]: 42.5% | viability, T/C [34]: 35.9% | viability, T/C [35]: 26.7% | viability, T/C [36]: 21.6%

COc1ncnc(C2CC2)c1-c1ncc2cnn(Cc3ccc(-c4nc(C(F)(F)F)cn4C(C)C)cc3)c2n1 + Cc1[nH]c2ccc(F)cc2c1-c1nc2c3cccnc3c3ncccc3c2[nH]1
pIC50 (second compound 0.0316 µM): < 5.00 | pIC50 (second compound 0.1 µM): < 5.00 | pIC50 (second compound 0.316 µM): < 5.00 | pIC50 (second compound 1 µM): 6.05 | pIC50 (second compound 3.16 µM): > 7.50 | pIC50 (second compound 10 µM): > 7.50 | viability, T/C [1]: 87.2% | viability, T/C [2]: 81.3% | viability, T/C [3]: 79.2% | viability, T/C [4]: 76.4% | viability, T/C [5]: 80.4% | viability, T/C [6]: 76.2% | viability, T/C [7]: 75.5% | viability, T/C [8]: 79.2% | viability, T/C [9]: 63.5% | viability, T/C [10]: 75.7% | viability, T/C [11]: 66.6% | viability, T/C [12]: 71% | viability, T/C [13]: 70% | viability, T/C [14]: 63.3% | viability, T/C [15]: 83.6% | viability, T/C [16]: 53.4% | viability, T/C [17]: 73% | viability, T/C [18]: 72% | viability, T/C [19]: 58% | viability, T/C [20]: 42.3% | viability, T/C [21]: 57.8% | viability, T/C [22]: 51.4% | viability, T/C [23]: 48.3% | viability, T/C [24]: 45.3% | viability, T/C [25]: 18.7% | viability, T/C [26]: 16.2% | viability, T/C [27]: 15.2% | viability, T/C [28]: 14.9% | viability, T/C [29]: 12.7% | viability, T/C [30]: 20.7% | viability, T/C [31]: 34.3% | viability, T/C [32]: 29.5% | viability, T/C [33]: 47.7% | viability, T/C [34]: 31.4% | viability, T/C [35]: 27.4% | viability, T/C [36]: 33.6%
